Values quoted from earlier work as cited in US4927638A, “Etoposide solutions” (Bristol-Myers Company, priority 1988, dated 1990).

Key:
[1] = with water, ethanol, propylene glycol, isopropyl myristate, diethyl ether, acetone, corn oil, cottonseed oil, etc.
[2] = background statement
[3] = oral (capsules or solution), of that found after intravenous administration; patients

Row | SMILES | miscibility [1] | solubility in water [2] | oral bioavailability [3]
1 | CO[C@H]1CO[C@H]2[C@@H]1OC[C@H]2OC [Dimethylisosorbide, dimethylisosorbide] | miscible | – | –
2 | COc1cc([C@@H]2c3cc4c(cc3[C@@H](O[C@@H]3O[C@@H]5CO[C@@H](C)O[C@H]5[C@H](O)[C@H]3O)[C@H]3COC(=O)[C@H]23)OCO4)cc(OC)c1O [Etoposide, 4'-demethylepipodophyllotoxin-9-(4,6-O(R)-ethylidine-β-D-glucopyranoside)] | – | only sparingly soluble | about 50%
